From patent publication US20260345649A1, “PHARMACEUTICAL COMPOSITION FOR DESTRUCTION OF TUMOR BLOOD VESSELS” (SAMSUNG MEDICAL FOUNDATION, priority 2022, published 2026)

Legend:
HUVEC [1] = experiment: 5-FU cytotoxicity on HUVEC according to D-glucose or L-glucose concentration (MTS); type: cell-based, human
Description: An MTS cell proliferation assay was conducted to evaluate the cytotoxic effect of 5-FU on HUVEC according to D-glucose concentration under different pH conditions.
The cells were then incubated for an additional 24 hours in DMEM medium containing various concentrations of glucose.
To assess the cytotoxic effect of L-glucose on HUVEC, the experiment was conducted in the same manner as described in Example 2, Section 3.
To assess the cytotoxic effect of D-glucose or L-glucose on HUVEC, the experiment was conducted in the same manner as described in Example 2, Section 3.

HUVEC [2] = experiment: Intracellular ROS generation in HUVEC (DCF-DA staining); type: cell-based, human
Description: The effect of D-glucose on intracellular reactive oxygen species (ROS) generation in HUVEC was measured using the DCF-DA staining method. HUVEC cells (25,000 per well) were cultured in a 96-well microplate with a dark, clear bottom. After 24 hours of incubation, the cells were treated with D-glucose at concentrations of 10 mM, 25 mM, 50 mM, 100 mM, 125 mM, 150 mM, 200 mM, and 250 mM. Following drug treatment, the culture medium was removed, and the cells were washed with 100 μL/well of Hanks' Balanced Salt Solution (HBSS) buffer. After washing, 100 μL/well of diluted DCFDA was added, and the […]. The cells were then incubated in diluted DCFDA solution for 45 minutes at 37 °C in the dark. Following incubation, the DCFDA solution was removed, and 100 μL of HBSS buffer was added. Fluorescence was immediately measured using a fluorescence plate reader at Ex/Em=485/535 nm.
The effect of L-glucose on intracellular ROS generation was measured using the same method as for D-glucose.

blood pressure = conditions: administered into blood vessels; cited from earlier work
platelets = conditions: L-NMMA alone, physiological conditions; cited from earlier work
HUVEC [3] = experiment: HUVEC cytotoxicity according to L-NMMA concentration (MTS); type: cell-based, human; conditions: L-NMMA alone, FIG. 19
Description: The cells were then incubated for an additional 24 hours in DMEM medium containing various L-NMMA concentrations. Following incubation, the cells were washed twice with PBS, and 100 μL of fresh DMEM growth medium was added. The cells were then further incubated for 48 hours.

human body = conditions: in vivo; cited from earlier work
hexokinase = conditions: role: substrate; first enzyme in glycolysis; cited from earlier work
[4] = system: human gastric cancer cells; experiment: Human gastric cancer cell xenograft in nude mice, bevacizumab local injection; type: in vivo, nude mice (Crj: BALB/c-nu/nu), human tumor cells; conditions: 1 mg bevacizumab, three times at one-week intervals
Description: The animals used in the experiment were three male nude mice (Crj: BALB/c-nu/nu, male), each weighing approximately 30 g and five weeks old, produced by Orient. The mice underwent a one-week acclimatization period in the laboratory before use. Human gastric cancer cells (5×10^6 cells/100 μL in PBS) were xenografted into the subcutaneous fat layer on the dorsal side of each nude mouse. The tumor size was measured periodically, and drug administration was initiated when the tumor reached a diameter of 1 cm.
The experimental animals were administered 1 mg of bevacizumab by injecting 0.2 cc adjacent to the tumor three times at one-week intervals.

advanced gastric cancer = conditions: combined with fluoropyrimidine-cisplatin therapy; cited from earlier work
[5] = D-glucose, L-glucose and mixtures with 5-FU, FIG. 15

O=C[C@H](O)[C@@H](O)[C@H](O)[C@H](O)CO [D-glucose]
cell viability (HUVEC [1]; D-glucose at both 5 mM and 25 mM, FIG. 13): significantly reduced cell viability | cell viability (HUVEC [1]; [5]): significantly reduced cell viability | ROS generation with increasing concentration (HUVEC [2]; D-glucose 10 mM to 250 mM, FIG. 11A): increased

CN=C(N)NCCC[C@H](N)C(=O)O [L-NMMA, N^G-Methyl-L-arginine]
blood pressure (blood pressure): effectively increases blood pressure | platelet activation in vivo (platelets): does not activate platelets in vivo | cell viability (HUVEC [3]): significantly reduced cell viability

O=C[C@@H](O)[C@H](O)[C@@H](O)[C@@H](O)CO [L-glucose]
toxicity to the human body (human body): non-toxic to the human body | phosphorylation by hexokinase (hexokinase): not phosphorylated by hexokinase | cell viability (HUVEC [1]; [5]): significantly reduced cell viability | cell viability, comparison among D-glucose, L-glucose and mixtures (HUVEC [1]; FIG. 15): more pronounced reduction in cell viability | cell viability (HUVEC [1]; L-glucose at both 5 mM and 25 mM, FIG. 14): significantly reduced cell viability | ROS generation with increasing concentration (HUVEC [2]; L-glucose, FIG. 11B): decreased

bevacizumab: recombinant humanized monoclonal antibody designed to inhibit vascular endothelial growth factor (VEGF)
tumor size for the following two months [4]: did not change | tumor size in the third month [4]: began to increase | tumor size four weeks after drug administration compared to before injection ([4]; P>0.05, FIG. 20): remained nearly unchanged | progression-free survival and overall response rate (advanced gastric cancer): improves progression-free survival and overall response rate
